Assay results published in patent publication US4444691A, “11-Cyano-prostaglandins of the F-series” (American Cyanamid Company, priority 1982, dated 1984).
Like-named read-outs stand apart in the source and are kept apart here.

What was measured:
[1] = system: ulcerogenic effects induced by indomethacin (stomach ulcers); format: in vivo, rat; conditions: indomethacin 20 mg/kg s.c.
Method: It is further to be noted that although prostaglandins in general are not effective when administered by oral route, the compounds of this invention are effective orally. The assay to determine the protective effect of these compounds is carried out in the following manner.
Rats were starved for 48 hours (water was given ad libitum). Indomethacin (20 mg./kg. of body weight) was administered by the subcutaneous route and one-half the dose of the test compound was administered by gavage at the same time. After three hours, the second half of the test compound was administered, also by gavage. Five hours after the administration of indomethacin the animals were decapitated and the stomachs removed. The stomachs were washed with distilled water, blotted on gauze, cut along the larger curvature, and the contents rinsed with distilled water. The stomachs were spread out, pinned on a cork and visualized under magnifying glass for ulcers. The criteria for scoring of ulcers was as previously reported. [Abdel-Galil et al. Brit. J. Pharmac. Chemotherapy 33:1-14 (1968)]. […]
1 Petechial hemorrhage of pin point ulcers
3 Many ulcers, a few large
4 Many ulcers, mainly large
Control animals treated with indomethacin but not test compound consistently give scores of about 2.5-3.5. Control animals treated with neither indomethacin not test compound give scores of about 0.5-0.8. Compounds diminishing the control ulcer score by 0.5 unit or more are considered to be active.

gastrointestinal effects = conditions: Physician's Desk Reference 1972, p. 964; cited from earlier work
[2] = system: basal gastric acid secretion; test: Inhibition of total acid output (basal gastric acid secretion) in the acute gastric fistula rat; format: in vivo, female Sprague-Dawley rats; conditions: Rattus norvegicus, intraduodenal
Method: Inhibition of basal gastric acid secretion can be determined by the following procedure.
Female Sprague-Dawley rats weighing 140-160 grams are fasted in individual cages for 18-24 hours. The rats are then lightly anesthetized with ether and their front teeth extracted to avoid destruction of the plastic cannula. A midline incision is then made and the stomach and duodenum exposed. A flanged polyvinyl tube is inserted into the fundic portion of the stomach and secured with a purse string suture line using 4-O Mersilene. The rat is then dosed by injection of the compound into the duodenum (1.0 ml. per 100 gram body weight). After dosing, the abdominal wall and skin are closed using metal wound clips. The rat is replaced in a cage containing a longitudinal slit to allow the polyvinyl tube to hang freely. An 8 ml. plastic collecting tube is attached to the flanged cannula and hangs freely below the cage. The first 30 minute sample is discarded designating this time as zero. The collecting tube is attached again and samples removed at the end of 60 and 120 minutes. These samples are referred to as "A" and "B" in the table. The hourly samples are then transferred to a 15 ml. centrifuge and centrifuged for 5-10 minutes. Total and sediment volume are then recorded with the supernatent volume being used as volume of secretion. A 1 ml. or less aliquot is then removed and placed in a 50 ml. beaker containing 10 ml. of distilled water. This sample is then titrated using 0.01 N NaPH to pH 7.0 using a Beckman zeromatic pH meter. Volume, titratable acidity (mew/L) and total acid output (ueq/hour) are recorded. Percent inhibition is determined by comparison with the appropriate control. Groups of three rats were used for preliminary testing, and groups of six rats were used for dose-response evaluations. All compounds are administered in a vehicle consisting of 0.5% methocel, 0.4% tween 80, and saline at a constant volume of 1 ml./100 gram rat. Samples are dispersed by sonification. Percent inhibition is calculated on basis of concurrent vehicle control.
In Table III which follows is given the effect on total acid output after 60 minutes and 120 minutes of intraduodenal dose, of representative compounds of this invention.

ligated intestine = system: ligated intestine; design: species or system female Sprague-Dawley rats; conditions: rat, in vivo
Method: It is therefore unexpected and novel that in general, the compounds of this invention are not diarrheagenic at dose levels at which they are effective gastric acid secretion inhibitors. One measure of diarrheagenic potential is the ileal ligated rat assay, a description of which follows directly.
Female Sprague-Dawley rats (Charles River Laboratories) weighing less than 100 grams are fasted in individual cages for at least 18 hours. They are then anesthetized with ether and a midline incision made. The duodenum is exposed and the test drug or control injected intraduodenally. The ilcocecal junction is then exposed and the terminal ileum is ligated using 3-0 silk thread just proximal to the junction. The incision is then closed using wound clips. Rats are placed back in individual cages without food or water for four hours. After this time the rats were sacrificed, the stomach and small intestine carefully removed, and cleaned of adherent mesentery. The removed portion of gut is then weighed to the nearest 0.1 gram. Compounds inducing diarrhea such as prostaglandins, cholera toxin, etc. produce an increase in weight of the ligated intestine. This increase from control is noted in Table IV, as change in weight in grams after standardizing weights of gut to grams/100 gram rat. An increase in intestinal weight of about 1.0 g. is considered indicative of diarrheagenic potential.
When measured by this assay at effective gastric acid secretion inhibiting doses, as determined by the acute rat fistula assay representative novel compounds of Table IV are non-diarrheagenic.

gastric acid secretion = test: Gastric acid secretion inhibition, modified Shay rat procedure; format: in vivo, rats (male, CFE strain); conditions: Rattus norvegicus, intraduodenal, read-out: Percent inhibition of gastric acid secretion
Text: The novel compounds of the present invention are effective inhibitors of gastric acid secretion and of ulcer development in experimental animals, and thus are potentially valuable as agents for the control of gastric secretion and of gastric erosion and as anti-ulcer agents. Gastric acid secretion inhibitory action is usually measured by the "Shay rat" procedure ^(1,2) with some modifications as follows.
(1) Shay et al., Gastroenterology, 5, 43 (1945).
The rats (male, CFE strain) were starved for 48 hours (water was given ad libitum) to permit evacuation of stomach contents. On the morning of the experiment, under ether anesthesia, the abdominal region was shaved and a midline incision (1-11/2" ) was made with a scapel. With the help of a closed curved hemostat the duodenum was picked up. Upon getting the duodenum into view, fingers were used to pull the stomach through the opening, the stomach was then gently manipulated with fingers to rid stomach of air and residual matter which were pushed through the pylorus. Two-5 inch sutures were drawn under the pyloric-duodenal puncture. A ligature at the juncture, was formed with one of the threads. The second ligature was also formed but not tightened.
The test compound or the vehicle, usually 1 ml./100 g. body weight, were injected into the duodenum as close as possible to the first ligature. After injection the second ligature was tightened below the injection site to minimize leakage. The stomach was placed back through the opening into the abdominal cavity, the area of incision was washed with saline and the incision was closed with autoclips. (Occasionally, instead of an intraduodenal injection, animals were dosed by the oral or subcutaneous route. In the latter case, dosing was done thirty to sixty minutes before the operation.)
The abdominal cavity was exposed by cutting with scissors and the esophagus close to the stomach was clamped off with a hemostat, the stomach was removed by cutting above the hemostat (the esophagus was cut) and between the two sutures. Extraneous tissue was removed, the stomach washed with saline and blotted on gauze. A slit was carefully made in the stomach which was held over a funnel and the contents were collected in a centrifuge tube. The stomach was further cut along the outside edge and turned inside out. Two ml. H2 O were used to wash the stomach contents into the respective centrifuge tube. The combined stomach contents and wash were then centrifuged out for 10 minutes in the International Size 2 Centrifuge (setting at 30). The supernatant was collected, volume measured and recorded, 2 drops of a phenylphthalein indicator (1% in 95% ethanol) were added and the solution was titrated with 0.02 N NaOH (or with 0.04 N NaOH when large volumes of stomach contents were encountered) to pH 8.4 (because of usual coloring of the stomach contents, phenolphthalein was only used to permit visual indication that the end point was near) and the amount of acid present was calculated.
Compounds inducing inhibition of gastric acid secretion of 20% or more were considered active. In a representative operation, and merely by way of illustration, the results obtained with this assay with typical compounds of the present invention are given in Table II below.

[3] = system: bronchospasms elicited by 5-hydroxytryptamine; test: Bronchodilator activity (Konzett assay), 5-hydroxytryptamine bronchospasm; format: in vivo, guinea pigs; conditions: Cavia porcellus; spasmogenic agent 5-hydroxytryptamine; three logarithmic cumulative intravenous doses
Method: (§1) Bronchodilator activity was determined in guinea pigs against bronchospasms elicited by intravenous injections of 5-hydroxytryptamine, histamine or acetylchlorine by the Konzett procedure. (See J. Lulling, P. Licvens, F. El Sayed and J. Prignot, Arzneinittel-Forschung, 18, 995 (1968).]
(§2) In the Table which follows bronchodilator activity for representative compounds of this invention against one or more of the three spasmogenic agents is expressed as an ED50 determined from the results obtained with three logarithmic cumulative intravenous doses.

[4] = system: bronchospasms elicited by histamine; test: Bronchodilator activity (Konzett assay), histamine bronchospasm; format: in vivo, guinea pigs; conditions: Cavia porcellus, iv, spasmogenic agent histamine; three logarithmic cumulative intravenous doses
Method: as §1, §2

[5] = system: bronchospasms elicited by acetylcholine; test: Bronchodilator activity (Konzett assay), acetylcholine bronchospasm; format: in vivo, guinea pigs; conditions: Cavia porcellus; spasmogenic agent acetylcholine; three logarithmic cumulative intravenous doses
Method: as §1, §2

[6] = 1 h, 60 min, read-out: % Inhibition of total acid output, after 60 minutes (A)
[7] = 2 h, 120 min, read-out: % Inhibition of total acid output, after 120 minutes (B)
[8] = total oral dose 12.5 mg/kg, score 0-4, controls 2.5-3.0

In the case of `COc1ccc2c(c1)c(CC(=O)O)c(C)n2C(=O)c1ccc(Cl)cc1` [indomethacin, reference compound], the “Ulcer score, control animals treated with indomethacin but not test compound” value ([1]; 5 h) is given as 2.5-3.5 and the Gastrointestinal reactions (gastrointestinal effects) is given as “occurrence and, at times, severity of gastrointestinal reactions”.
With `CCCCC[C@H](O)/C=C/[C@H]1C(SC(C)=O)CC(=O)[C@@H]1C/C=C\CCCC(=O)O` (stereo partly drawn) [l-11-acetylthio-11-deoxyprostaglandin-E2, 11-deoxy-11α/β-acetylthioprostaglandin E2] the inhibition in vivo at 10 mg/kg [2, 6] was 66%, the inhibition in vivo at 10 mg/kg [2, 7] was 68% and the “Increase in weight of intestine” value (ligated intestine; 10 mg/kg) was -0.02 g. For the same compound, the “Increase in weight of intestine” value (ligated intestine; 20 mg/kg) was -0.1 g.
With `CCCCC[C@H](O)/C=C/[C@H]1[C@H](CO)C[C@@H](O)[C@@H]1C/C=C\CCCC(=O)O` [l-11-dexoy-11α-hydroxymethylprostaglandin-F2 β] the inhibition in vivo at 5 mg/kg [2, 6] was 49%, the inhibition in vivo at 5 mg/kg [2, 7] was 49% and the “Increase in weight of intestine” value (ligated intestine; 10 mg/kg) was “+0.6 g”.
For `CCCCC[C@H](O)/C=C/[C@H]1[C@H](SCC)CC(=O)[C@@H]1C/C=C\CCCC(=O)O` [l-11α-ethylthio-11-deoxyprostaglandin-E2, 11-deoxy-11α-ethylthioprostaglandin E2], the “Increase in weight of intestine” value (ligated intestine; 10 mg/kg) was -0.2 g.
For `CCCCC[C@@H](/C=C/[C@H]1[C@H](CO)C[C@@H](O)[C@@H]1C/C=C\CCCC(=O)OC)OC(C)=O` [l-11α-hydroxymethyl-15-O--acetyl-11-deoxyprostaglandin-F2 β methyl ester], the inhibition in vivo at 5 mg/kg [2, 6] was 47%, the inhibition in vivo at 5 mg/kg [2, 7] was 33% and the “Increase in weight of intestine” value (ligated intestine; 10 mg/kg) was “+0.15 g”.
For `CCCCC[C@H](O)/C=C/[C@H]1[C@H](C)CC(=O)[C@@H]1C/C=C\CCCC(=O)O` [l-11α-methyl-11-deoxyprostaglandin-E2, 11-deoxy-11α-methyl-prostaglandin E2], the “Ulcer score, treated animals” value ([1]; total oral dose 6.25 mg/kg, score 0 (normal) to 4, controls 3.0) was 2.5, the “Ulcer score, treated animals” value [1, 8] was 2.0 and the “Ulcer score, treated animals” value ([1]; total oral dose 25 mg/kg, score 0-4, controls 2.7-3.9) was 1.7. It also gave an inhibition in vivo at 50 mg/kg (gastric acid secretion) of 63%, an ED50 [3] of 0.0022 mg/kg and an ED50 [4] of 0.05 mg/kg. For the same compound, the ED50 [5] was 1.19 mg/kg.
With `C=C[C@@H]1C[C@H](O)[C@H](C/C=C\CCCC(=O)O)[C@H]1/C=C/[C@@H](O)CCCCC` [l-11α-vinyl-11-deoxyprostaglandin-F2 α, 11-deoxy-11α-vinylprostaglandin F2α] the inhibition in vivo at 2.5 mg/kg [2, 6] was 15%, the inhibition in vivo at 5 mg/kg [2, 6] was 53% and the inhibition in vivo at 2.5 mg/kg [2, 7] was 37%. For the same compound, the inhibition in vivo at 5 mg/kg [2, 7] was 67% and the “Increase in weight of intestine” value (ligated intestine; 10 mg/kg) was -0.36 g.
With `CCCCC[C@H](O)/C=C/[C@H]1C(C#N)CC(=O)[C@@H]1C/C=C\CCCC(=O)O` (stereo partly drawn) [l-11α/β-cyano-11-deoxyprostaglandin-E2, 11α/β-cyano-11-deoxy-prostaglandin E2] the “Ulcer score, treated animals” value [1, 8] was 1.2, the inhibition in vivo at 25 mg/kg (gastric acid secretion; 25 mg/kg) was 31% and the inhibition in vivo at 50 mg/kg (gastric acid secretion) was 79%. The ED50 [3] was 0.036 mg/kg, the ED50 [4] was 0.0054 mg/kg and the ED50 [5] was 0.091 mg/kg.
